≈ marks a conversion by molar mass, not a printed value. Calls of active or inactive are those of the source. The rule behind the calls is not given here.
Experiments:
[1] = test system: Human alphaherpesvirus 2; assay: Antiviral activity against Herpes simplex virus 2 assessed as inhibition of virus-induced cytopathic effect at 50 ug/ml after 72 hrs by two-fold dilution method; format: functional, organism-based
[2] = test system: Equine rhinovirus; assay: Antiviral activity against Equine rhinovirus assessed as inhibition of virus-induced cytopathic effect after 48 hrs by two-fold dilution method
[3] = test system: rhinovirus A2; assay: Antiviral activity against Human rhinovirus 2 assessed as inhibition of virus-induced cytopathic effect at 37 degC after 72 hrs by two-fold dilution method; format: functional; details: Rhinovirus A
[4] = test system: Equine rhinovirus; assay: Antiviral activity against Equine rhinovirus infected in rhesus monkey trachea assessed as reduction in viral yield at 200 ug/ml after 3 days followed by compound-washout measured after 24 hrs by human CATR cell-based titration method relative to control; design: scale not given: the % may be the effect or the level left
[5] = test system: rhinovirus B14; assay: Antiviral activity against Human rhinovirus 14 assessed as inhibition of virus-induced cytopathic effect at 37 degC after 72 hrs by two-fold dilution method; format: functional; details: Rhinovirus B
[6] = test system: Human alphaherpesvirus 2; assay: Antiviral activity against Herpes simplex virus 2 Curtis assessed as inhibition of virus-induced cytopathic effect at 37 degC after 72 hrs by two-fold dilution method; format: functional; details: Human alphaherpesvirus 2, Curtis
[7] = test system: Human alphaherpesvirus 1; assay: Antiviral activity against Herpes simplex virus 1 assessed as inhibition of virus-induced cytopathic effect at 37 degC after 72 hrs by two-fold dilution method; format: functional; details: Human alphaherpesvirus 1, 72 h
[8] = test system: Influenza A virus; assay: Antiviral activity against Influenza A2 virus Jap 170 infected in ferret trachea assessed as reduction in viral yield at 200 ug/ml after 3 days followed by compound-washout measured after 24 hrs by chick embryo-based hemagglutination titration method relative to control v; format: functional; design: scale not given: the % may be the effect or the level left
[9] = test system: Equine rhinovirus; assay: Antiviral activity against Equine rhinovirus infected in rhesus monkey trachea assessed as reduction in viral yield at 400 ug/ml after 3 days followed by compound-washout measured after 24 hrs by human CATR cell-based titration method relative to control; design: scale not given: the % may be the effect or the level left
[10] = test system: Equine rhinovirus; assay: Antiviral activity against Equine rhinovirus infected in rhesus monkey trachea assessed as reduction in viral yield at 100 ug/ml after 3 days followed by compound-washout measured after 24 hrs by human CATR cell-based titration method relative to control v; design: scale not given: the % may be the effect or the level left
[11] = Antiviral activity against Human rhinovirus 17 assessed as inhibition of virus-induced cytopathic effect at 37 degC after 72 hrs by two-fold dilution method; format: functional, Human rhinovirus B17; details: Rhinovirus B
[12] = test system: Respiratory syncytial virus; assay: Antiviral activity against Respiratory syncytial virus assessed as inhibition of virus-induced cytopathic effect at 37 degC after 72 hrs by two-fold dilution method; format: functional; details: human respiratory syncytial virus
[13] = test system: Human alphaherpesvirus 2; assay: Antiviral activity against Herpes simplex virus 2 assessed as inhibition of virus-induced cytopathic effect after 72 hrs by two-fold dilution method; format: functional; details: Human alphaherpesvirus 2, 72 h
[14] = test system: Influenza A virus; assay: Antiviral activity against Influenza A2 virus Jap 170 infected in ferret trachea assessed as reduction in viral yield at 400 ug/ml after 3 days followed by compound-washout measured after 24 hrs by chick embryo-based hemagglutination titration method relative to control; format: functional; design: scale not given: the % may be the effect or the level left
[15] = test system: unidentified influenza virus; assay: Antiviral activity against Parainfluenza virus assessed as inhibition of virus-induced cytopathic effect at 37 degC after 72 hrs by two-fold dilution method; format: functional
[16] = test system: Human alphaherpesvirus 1; assay: Antiviral activity against Herpes simplex virus 1 Sheely assessed as inhibition of virus-induced cytopathic effect at 37 degC after 72 hrs by two-fold dilution method; format: functional; details: Human alphaherpesvirus 1, Sheely

Row | SMILES | inhibition [1] | MIC [2] | MIC [13] | also measured
1 | CCC(=O)C(CCCCCCOc1ccc(OCCN(CC)CC)cc1)C(=O)CC | inactive | 25 µg/mL (≈ 59.6 µM) | – | –
2 | CCC(=O)C(CCCCCCOc1ccc(OC)cc1Cl)C(=O)CC [ARILDONE] | – | 1.5 µg/mL (≈ 4.07 µM) | 6 µg/mL (≈ 16.3 µM) | MIC [3]: 0.7 µg/mL (≈ 1.9 µM); Activity [4]: 98%; MIC [5]: 1.5 µg/mL (≈ 4.07 µM); MIC [6]: 6 µg/mL (≈ 16.3 µM); MIC [7]: 6 µg/mL (≈ 16.3 µM); Activity [8]: 90%; Activity [9]: 99.5%; Activity [10]: 70%; MIC [11]: 3 µg/mL (≈ 8.13 µM); MIC [12]: 3 µg/mL (≈ 8.13 µM); Activity [14]: 99.9%; MIC [15]: 1.5 µg/mL (≈ 4.07 µM); MIC [16]: 6 µg/mL (≈ 16.3 µM)
3 | CCC(=O)C(CCCCCCCOc1ccc(OC)cc1Cl)C(=O)CC | – | 3 µg/mL (≈ 7.83 µM) | 6 µg/mL (≈ 15.7 µM) | –
4 | CCC(=O)C(CCCCCCOc1ccccc1Cl)C(=O)CC | – | 3 µg/mL (≈ 8.85 µM) | 6 µg/mL (≈ 17.7 µM) | –
5 | CCC(=O)C(CCCCCCOc1ccc(OCc2ccccc2)cc1Cl)C(=O)CC | – | 3 µg/mL (≈ 6.74 µM) | 3 µg/mL (≈ 6.74 µM) | –
6 | CCC(=O)C(CCCCCCOc1cccc(N(C)C)c1)C(=O)CC | inactive | 6 µg/mL (≈ 17.3 µM) | – | –
7 | Nc1ccn([C@@H]2O[C@H](CO)[C@@H](O)[C@@H]2O)c(=O)n1 [CYTARABINE] | – | – | – | MIC [6]: < 3 µg/mL; MIC [16]: < 3 µg/mL
8 | Nc1ncnc2c1ncn2[C@@H]1O[C@H](CO)[C@@H](O)[C@@H]1O [VIDARABINE] | – | – | – | MIC [6]: 12 µg/mL (≈ 44.9 µM); MIC [16]: 12 µg/mL (≈ 44.9 µM)
9 | CCC(=O)C(CCCCCOc1ccc(OC)cc1Cl)C(=O)CC | – | 6 µg/mL (≈ 16.9 µM) | 6 µg/mL (≈ 16.9 µM) | –
10 | CCC(=O)C(CCCCCCOc1ccc(OC(C)=O)cc1Cl)C(=O)CC | inactive | 12 µg/mL (≈ 30.2 µM) | – | –
11 | CCC(=O)C(CCCCCCOc1ccc(OC(=O)c2ccc(OC)cc2)cc1)C(=O)CC | inactive | 6 µg/mL (≈ 13.2 µM) | – | –
12 | CCC(=O)C(CCCCCCOc1cc(Cl)c(OC)cc1Cl)C(=O)CC | – | 3 µg/mL (≈ 7.44 µM) | 6 µg/mL (≈ 14.9 µM) | –
13 | CCC(=O)C(CCCCCCOc1ccccc1I)C(=O)CC | inactive | 12 µg/mL (≈ 27.9 µM) | – | –
14 | CCC(=O)C(CCCCCCOc1ccc(C(C)=O)cc1OC)C(=O)CC | – | – | 12 µg/mL (≈ 31.9 µM) | –
15 | CCC(=O)C(CCCCCCOc1ccc(SC)cc1)C(=O)CC | inactive | 3 µg/mL (≈ 8.56 µM) | – | –
16 | CCC(=O)C(CCCCCCOc1ccc(C#N)cc1)C(=O)CC | inactive | – | – | –

Row | SMILES | inhibition [1] | MIC [2] | MIC [13] | also measured
17 | CCC(=O)C(CCCCCCCCCCOc1ccc(OC)cc1Cl)C(=O)CC | – | 12 µg/mL (≈ 28.2 µM) | 6 µg/mL (≈ 14.1 µM) | –
18 | CCOC(=O)c1ccc(OCCCCCCC(C(=O)CC)C(=O)CC)cc1 | – | 6 µg/mL (≈ 15.9 µM) | 3 µg/mL (≈ 7.97 µM) | –
19 | CCC(=O)C(CCCCCCOc1ccc(OC)cc1Br)C(=O)CC | – | 3 µg/mL (≈ 7.26 µM) | 6 µg/mL (≈ 14.5 µM) | –
20 | CCC(=O)C(CCCCCCOc1ccc(CC)cc1)C(=O)CC | – | 6 µg/mL (≈ 18 µM) | 12 µg/mL (≈ 36.1 µM) | –
21 | COc1ccc(OCCCCCCC(C(=O)C(C)(C)C)C(=O)C(C)(C)C)c(Cl)c1 | – | – | 6 µg/mL (≈ 14.1 µM) | –
22 | CCC(=O)C(CCCCCCCOc1ccc2c(c1)OCO2)C(=O)CC | inactive | 6 µg/mL (≈ 16.6 µM) | – | –
23 | CCC(=O)C(CCCCCCCCOc1ccc(OC)cc1Cl)C(=O)CC | – | 3 µg/mL (≈ 7.56 µM) | 3 µg/mL (≈ 7.56 µM) | –
24 | CCC(=O)C(CCCCCOc1ccc2c(c1)OCO2)C(=O)CC | inactive | – | – | –
25 | CCC(=O)C(CCCCCCOc1ccccc1C(F)(F)F)C(=O)CC | – | 6 µg/mL (≈ 16.1 µM) | 6 µg/mL (≈ 16.1 µM) | –
26 | CCC(=O)C(CCCCCCOc1cccc([N+](=O)[O-])c1)C(=O)CC | inactive | 3 µg/mL (≈ 8.59 µM) | – | –
27 | CCC(=O)C(CCCCCCOc1ccc(Cl)cc1Cl)C(=O)CC | – | – | 3 µg/mL (≈ 8.04 µM) | –
28 | CCC(=O)C(CCCCCCOc1cccc(I)c1)C(=O)CC | – | 6 µg/mL (≈ 13.9 µM) | 6 µg/mL (≈ 13.9 µM) | –
29 | CCC(=O)C(CCCCCCOc1ccc(S(N)(=O)=O)cc1)C(=O)CC | – | – | 12 µg/mL (≈ 31.3 µM) | –
30 | CCC(=O)C(CCCCCCOc1ccc(I)cc1)C(=O)CC | – | 3 µg/mL (≈ 6.97 µM) | 6 µg/mL (≈ 13.9 µM) | –
31 | CCC(=O)C(CCCOc1ccc2c(c1)OCO2)C(=O)CC | inactive | – | – | –
32 | CCC(=O)C(CCCCCCOc1ccc2c(c1)OCO2)C(=O)CC | inactive | 3 µg/mL (≈ 8.61 µM) | – | –
